Here are results for seven compounds from US20260008784A1 (VASTHERA CO., LTD., priority 2022, published 2026).

Data set [1] has as its system human aortic endothelial cells (HAEC). In words: Cytotoxicity assay (WST-1), endothelial cell. As to conditions: read-out: Cell cytotoxicity (CC50) Endothelial cell; 24 h, concentration corresponding to 50% cell viability.
Description: (§6) For cytotoxicity analysis, human aortic endothelial cells (HAEC) and smooth muscle cells (HASMC) were seeded in a 96-well culture plate at density of 4000 cells/well in a final volume of 100 μL. Cells were cultured for 24 h and serum-starved for an additional 18 h. Test compounds were serially diluted with EBM-2 culture medium, added to the plate at 100 μL/well, and further incubated for 24 h. The number of viable cells was measured using the WST-1 cell viability assay kit (Roche Diagnostics, USA). Cell number was expressed as absorbance values at 450 nm after subtracting the turbidity value at 600 nm. The absorbance values from three replicate wells were averaged.
(§7) After treatment with ascending concentrations of each compound, the concentration of test compound corresponding to 50% cell viability (CC50) was measured.
The test system of the next data set is hepatocytes. In words: Cytotoxicity test, liver cell. As to conditions: read-out: Cell cytotoxicity (CC50) Liver cell; concentration corresponding to 50% cell viability.
A short description of data set [2]: Measurement of redox potential (DTT redox buffers, HPLC). The format is physicochemical. As to conditions: DTT(Red)/DTT(Ox) redox buffers, 3 h, 30° C., 50% reduction of test compound. Here is the method:
A test compound (10 mM) was diluted 20-fold with each redox buffer solution and incubated for 3 h in a 30° C. water bath. Then, compounds were analyzed by HPLC. The area of peaks corresponding to the oxidized and reduced forms of test compound based on specific retention time was calculated and plotted as percent of total peak area against the Nernst equation value (mV) at x-axis. The Nernst equation value corresponding to 50% reduction of test compound was set as the midpoint redox potential value for test compound.
The redox potential values of the test compounds were analyzed based on the potential values established in redox buffer solutions where reduced and oxidized DTT are mixed at various ratios.

Data set [3] concerns yeast thioredoxin (Trx)/yeast Trx reductase (TR). In words: Peroxidase activity assay (H2O2 reduction, NADPH oxidation). As to conditions: 50 μM test compound, 3 μM yeast Trx, 1.5 μM yeast TR, 250 μM NADPH, 1.2 mM H2O2, 30° C.; NADPH oxidized per minute. The format is biochemical. The protocol: Hydrogen peroxide (H2O2)-reducing peroxidase activity of compounds in present invention was performed as follows. Peroxyredoxin activity was measured in reaction mixture (200 μL volume) containing 50 mM HEPES buffer (pH 7.0), 1 mM EDTA, 250 μM NADPH, 3 μM yeast thioredoxin (Trx), 1.5 μM yeast Trx reductase (TR), 50 μM test compound, and 1.2 mM H2O2.
Reaction was initiated by adding H2O2 and the decrease in absorbance at 340 nm was measured using Agilent UV8453 spectrophotometry (Hewlett Packard, USA) at 30° C. for 12 min. Initial reaction rate is the amount of NADPH oxidized per minute calculated from slope of the linear part of curve.
The H2O2-reducing peroxidase activity of the test compounds in present invention was measured in a reaction mixture containing thioredoxin (Trx)/thioredoxin reductase (TR), respectively.

For data set [4], the system named is human aortic smooth muscle cells (HASMC). In words: Cytotoxicity assay (WST-1), smooth muscle cell. As to conditions: read-out: Cell cytotoxicity (CC50) Smooth muscle cell; 24 h, concentration corresponding to 50% cell viability. On the technique in general: Formazan colour is commonly taken as a measure of viable cells.
Description: as §6, §7
The nature of data set [5]: Cytotoxicity assay (WST-1), smooth muscle cell. As to conditions: human, human aortic smooth muscle cells (HASMC).
Description: as §6, §7
Data set [6] is described as follows: Cytotoxicity assay (WST-1), endothelial cell. As to conditions: human, human aortic endothelial cells (HAEC).
Description: as §6, §7
Data set [7] in a line: Cytotoxicity test, liver cell. As to conditions: hepatocytes.
Description: (§8) Cytotoxicity tests were performed against vascular endothelial cells, vascular smooth muscle cells and hepatocytes. After treatment with ascending concentrations of each compound, the concentration of test compound corresponding to 50% cell viability (CC50) was measured.
Data set [8] in a line: in vitro.
Description: as §8
The nature of data set [9]: in vitro. As to conditions: human.
Description: as §6, §7
In data set [10] the test system is Tyr 857 phosphorylation of PDGF receptor-β (PDGFRβ) in HASMC. In words: Immunoblot of PDGF-mediated signaling in PrxII knock-down HASMC. The data set is classed as cell-based, human. As to conditions: HASMC depleted of PrxII expression, FIG. 2. Here is the method: (§1) Cells were quickly washed in ice-cold phosphate-buffered saline (PBS) and lysed in extraction buffer containing 20 mM Hepes (pH 7.0), 1% Triton X-100, 150 mM NaCl, 10% glycerol, 1 mM EDTA, 2 mM EGTA, and 1 mM DTT, 5 mM Na3VO4, 5 mM NaF, 1 mM AEBSF, aprotinin (5 μg/mL), and leupeptin (5 μg/mL). After cen-trifugation at 12,000×g, the clarified cell extracts were used for immunoblotting. For re-blotting, the immunoblots were retrieved in a solution of 67 mM Tris (pH 6.7), 2% SDS, and 100 mM 2-mercaptoethanol at 60° C. for 30 min to remove antibodies and rinsed three times with a Tris-buffered saline (TBS) solution containing 1% Triton X-100. The retrieved membranes were subjected to new immunoblotting.
In human aortic smooth muscle cell (HASMC) and human pulmonary artery smooth muscle cell (PASMC) in which PrxII was knocked out by transfecting the PrxII siRNA, the ability of test compounds to replace the cellular function of PrxII was evaluated. That is, the efficacy of the new compounds was verified in terms of signaling pathways induced by PDGF that regulates the growth and migration of vascular smooth muscle cells in the aorta and pulmonary artery. Activation of PDGF-induced signaling pathway was analyzed by an immunoblot method using an antibody that specifically recognizes phosphorylation of Tyr 857, which is a major phosphorylation site on PDGF receptor (PDGFRβ).

Data set [11] can be described thus: in vitro. As to conditions: human. The source holds these as a separate data set.
Description: as §6, §7
Data set [12] relates to human aortic smooth muscle cell (HASMC). In words: PDGF-induced proliferation assay, HASMC (PrxII siRNA). The data set is classed as cell-based. As to conditions: for Degree of HASMC proliferation: PDGF-BB 25 ng/mL, percent of untreated control. The protocol: (§2) HASMCs and PASMCs were transfected with a PrxII-specific siRNA using RNAi MAX transfection reagent according to manufacturer's protocol. After 24 hours, transfected cells (3,000 cells/well) were seeded in a 96-well culture plate. At 12 h after seeding, cells were serum-starved for additional 18 h in SmBM basal medium containing 0.5% FBS. Test compounds were serially diluted with the same basal medium containing 0.5% FBS, added to the cells ([…]), and incubated for 2 h. After treatment, cells were placed in fresh SmBM medium containing 0.5% FBS and PDGF-BB (25 ng/mL) for growth factor stimulation and further cultured for 24 h.
(§3) The degree of cell proliferation was measured using the Cell Titer-GLO kit ([…]). Data are the percent of luminescence intensity averaged from three replicate wells versus that of untreated control group.
(§4) In human aortic smooth muscle cell (HASMC) and human pulmonary artery smooth muscle cell (PASMC) in which PrxII was knocked out by transfecting the PrxII siRNA, the ability of test compounds to inhibit the PDGF-induced proliferation of vascular smooth muscle cells was evaluated. In Table 6, the degree of proliferation in the compound-treated groups is expressed as percent of the degree of proliferation in untreated control group. The concentrations of test compounds corresponding to 50% growth inhibition (IC50) is also listed.

Data set [13] deals with Tyr 1175 phosphorylation of VEGF receptor-2 (VEGFR2) in HAEC. In words: Immunoblot of VEGF-mediated signaling in PrxII knock-down HAEC. The format is cell-based, human. As to conditions: HAECs depleted of PrxII expression, FIG. 5. Here is the method:
as §1
In human aortic endothelial cell (HAEC) and human pulmonary artery endothelial cell (PAEC) in which PrxII was knocked out by transfecting the PrxII siRNA, the ability of test compounds to replace the cellular function of PrxII was evaluated. That is, the efficacy of the new compounds was verified in terms of signaling pathways induced by VEGF that regulates the growth and migration of vascular endothelial cells in the aorta and pulmonary artery. Activation of VEGF-induced signaling pathway was analyzed by an immunoblot method using an antibody that specifically recognizes phosphorylation of Tyr 1175, which is a major phosphorylation site on VEGF receptor-2 (VEGFR2).
On the technique in general: A western blot detects proteins with antibodies after separation by electrophoresis.

The test system of data set [14] is human aortic endothelial cell (HAEC). In words: VEGF-induced proliferation assay, HAEC (PrxII siRNA). The data set is classed as cell-based. As to conditions: for Degree of HAEC proliferation: VEGF-A 25 ng/mL, percent of untreated control. The protocol:
as §2, with “HAECs” for “HASMCs”, “PAECs” for “PASMCs”, “EBM” for “SmBM”, “VEGF-A” for “PDGF-BB”
as §3
(§5) In human aortic endothelial cell (HAEC) and human pulmonary artery endothelial cell (PAEC) in which PrxII was knocked out by transfecting the PrxII siRNA, the ability of test compounds to augment the VEGF-induced proliferation of vascular endothelial cells was evaluated. In Table 7, the degree of proliferation in the compound-treated groups is expressed as percent of the degree of proliferation in untreated control group. The effective concentrations of test compounds increasing cell proliferation by 50% (EC50) is also listed.

Data set [15] concerns human pulmonary artery smooth muscle cell (PASMC). In words: PDGF-induced proliferation assay, PASMC (PrxII siRNA). The data set is classed as cell-based. As to conditions: for Degree of PASMC proliferation: PDGF-BB 25 ng/mL, percent of untreated control. Here is the method: as §2, §3, §4
In data set [16] the test system is human pulmonary artery endothelial cell (PAEC). In words: VEGF-induced proliferation assay, PAEC (PrxII siRNA). The format is cell-based. As to conditions: for Degree of PAEC proliferation: VEGF-A 25 ng/mL, percent of untreated control. The protocol: as §2, with “HAECs” for “HASMCs”, “PAECs” for “PASMCs”, “EBM” for “SmBM”, “VEGF-A” for “PDGF-BB”
as §3, §5

The conditions of data set [17]: reference potential values of Trx and GSH for comparison; cited from earlier work.
Where [18] appears, read: Homo sapiens, Endothelial cell, effective concentration increasing cell proliferation by 50%, VEGF-stimulated.

Where two headings read alike, the source gives them in different places.

Description for hepatocytes: as §8

Consider `O=C1C2CSSC3(CCCN13)C(=O)N2Cc1ccccc1` (stereo not drawn) [Compound 7, 11-benzyltetrahydro-5H,7H-4,9a-(epiminomethano)pyrrolo[2,1-c][1,2,4]dithiazepine-5,10-dione], for which the CC50 (in data set [1]; in the data set with hepatocytes; in data set [4]) was above 500 µM throughout. Moreover, the “Midpoint redox potential (E m)” value in [2] was −300.98 mV. Also, the “Peroxidase activity for H2O2 reduction” value in [3] came to 3.83 nmol/min.

Take `CN1C(=O)C2CSSC1(C)C(=O)N2Cc1cccs1` (stereo not drawn) [Compound 14, 1,8-dimethyl-6-(thiophen-2-ylmethyl)-2,3-dithia-6,8-diazabicyclo[3.2.2]nonane-7,9-dione]: the “Peroxidase activity for H2O2 reduction” value in data set [3] was 4.78 nmol/min. In data set [5], this compound displayed a CC50 at 24 h above 500 µM.

As to `CN1C(=O)C2CSSC1(C)C(=O)N2Cc1nc2ccccc2s1` (stereo not drawn) [Compound 15, 6-(benzo[d]thiazol-2-ylmethyl)-1,8-dimethyl-2,3-dithia-6,8-diazabicyclo[3.2.2]nonane-7,9-dione], the CC50 at 24 h in data set [6] turned out to be 114 µM; in [5] it was 98.5 µM. Moreover, the CC50 in [7] was 157 µM.

`CN1C(=O)C2(Cc3ccccc3)SSCC1C(=O)N2C` (stereo not drawn) [Compound 19, 1-benzyl-6,8-dimethyl-2,3-dithia-6,8-diazabicyclo[3.2.2]nonane-7,9-dione]: the CC50 in “in vitro [8]”, in “in vitro [9]” and in the data set “in vitro [11]” was above 500 µM each time. In data set [10], the “Effect on phosphorylation of Tyr 857 on PDGFR” value is recorded as “strongly abolish the phosphorylation”. Moreover, the “Peroxidase activity for H2O2 reduction” value in [3] was 5.69 nmol/min.

Regarding `CN1CCN2C(=O)C3CSSC2(C1)C(=O)N3C` (stereo not drawn) [Compound 23], the “Degree of HASMC proliferation” value stood at 89.8% in data set [12] (2.5 nM), 54.3% in [12] (5 nM), 34.4% in data set [12] (10 nM) and 20.4% in data set [12] (25 nM). Further, the IC50 worked out at 0.00685 µM in [12] (Homo sapiens, HASMC, 50% growth inhibition, PDGF-stimulated) and 0.00476 µM in data set [15] (Homo sapiens, PASMC, 50% growth inhibition, PDGF-stimulated). In addition, the “Effect on phosphorylation of Tyr 1175 on VEGFR2” value in data set [13] is recorded as “strongly abolish the phosphorylation”. For the same compound, the CC50 is 123 µM in “in vitro [8]” and above 500 µM in the data set “in vitro [9]”. Moreover, the “Degree of HAEC proliferation” value in data set [14] (2.5 nM) turned out to be 109.4%; in data set [14] (5 nM) it was 122.6%; in data set [14] (10 nM), 161.3%; in [14] (25 nM), 187.6%; in [14] (50 nM), 177.1%; in data set [14] (100 nM) it was 133.0%. Further, the EC50 in data set [14] (setting [18]) was determined as 0.00972 µM; in [16] (setting [18]), 0.0052 µM. For the same compound, the “Degree of PASMC proliferation” value in data set [15] (2.5 nM) is recorded as 70.8%; in [15] (5 nM), 43.3%; in data set [15] (10 nM), 32.9%; in [15] (25 nM), 14.6%; in data set [15] (50 nM) it was 3.2%; in [15] (100 nM), 0.0%. Moreover, in [10], the “Effect on phosphorylation of Tyr 857 on PDGFR” value is on record as “strongly abolish the phosphorylation”. Also, in data set [3], the “Peroxidase activity for H2O2 reduction” value was determined as 8.81 nmol/min. For the same compound, the “Degree of PAEC proliferation” value in data set [16] (2.5 nM) amounted to 109.2%; in data set [16] (5 nM) it was 122.9%; in [16] (10 nM) it was 148.3%; in [16] (25 nM), 173.3%; in [16] (50 nM) it was 155.3%; in [16] (100 nM), 133.9%.

As for `N[C@@H](CCC(=O)N[C@@H](CS)C(=O)NCC(=O)O)C(=O)O` [GSH], the “Midpoint redox potential (E m)” value in [17] was −240 mV.

As to thioredoxin [Trx], the “Midpoint redox potential (E m)” value in data set [17] is −270 mV.

What is called IC50 is the concentration that gives 50% inhibition. Low values mean greater potency, high ones weaker potency. Broadly, the EC50 is the concentration that produces a half-maximal response. Lower therefore signals a more potent agent.
